Measurements taken from PMC8907848 (Frontiers in Chemistry, 2022).
Read-outs that look alike come from different tables or passages of the source.

Key:
FIPV M^pro [1] = biological target: T1, FIPV M^pro (Feline coronavirus, UniProt Q98VG9); assay: FRET-based cleavage assay with purified FIPV Mpro (Ki and IC50 determination); format: biochemical, FIPV WSU-79/1146
Experimental: A fluorescence resonance energy transfer (FRET)–based cleavage assay was performed using a synthetic peptide fluorescent substrate containing the cleavage site of FIPV M^pro [Abz-SVTLQ↓SG-Tyr (NO2)-R] as described previously ([Vuong et al., 2020]; [Vuong et al., 2021]). […] The enzymatic reactions using 1–500 μM of FRET substrate in activity buffer (25 mM Bis-Tris, 1 mM DTT, pH 7.0) were started with the addition of protease. For IC50 determination, 100 nM of FIPV M^pro was incubated with an inhibitor concentration range of 0.25 nM–100 µM in activity buffer. The reaction was started with 40 µM of FRET substrate. The fluorescence signal of the FRET peptide cleavage product was monitored at an emission wavelength of 420 nm with excitation at 320 nm, using a Cytation 5 Imaging Multi-Mode Reader (BioTek) for 7 min at 37°C. The kinetic data were analyzed using computer-fit calculation (Prism 9.0, GraphPad Software). […] The experiments were performed in triplicate.

SARS-CoV-2 M^pro = conditions: read-out: SARS-CoV-2 M^pro IC50; mean ± SEM, n = 3; ref Vuong et al. (2021); cited from earlier work
SARS-CoV M^pro = conditions: ref Arutyunova et al., 2021; cited from earlier work
[2] = biological target: Feline infectious peritonitis virus main protease (FIPV M^pro, FIPV WSU-79/1146) (feline infectious peritonitis virus (FIPV WSU-79/1146)); assay: crystal structure; FIPV M^pro at 10 mg/ml incubated with 5x molar excess of GC373 or GC376 (4°C, 2 h), sitting drop, room temperature; GC376: 2.0 M ammonium sulfate, 0.1 M Bis-Tris pH 5.5; GC373: 0.2 M calcium chloride, 0.1 M MES, 20% PEG 6000, pH 6.0
FIP virus (FIPV) = system: FIP virus (FIPV); parameters: method as in Kim et al., 2016; Pedersen et al., 2018; conditions: experimentally induced and naturally occurring FIP; ref Kim et al., 2016; Pedersen et al., 2018; cited from earlier work
FIPV M^pro [3] = biological target: T1, FIPV M^pro; parameters: method as in Kim et al., 2012; conditions: ref Kim et al., 2012; cited from earlier work

T1 sequence (Q98VG9 2904-3205): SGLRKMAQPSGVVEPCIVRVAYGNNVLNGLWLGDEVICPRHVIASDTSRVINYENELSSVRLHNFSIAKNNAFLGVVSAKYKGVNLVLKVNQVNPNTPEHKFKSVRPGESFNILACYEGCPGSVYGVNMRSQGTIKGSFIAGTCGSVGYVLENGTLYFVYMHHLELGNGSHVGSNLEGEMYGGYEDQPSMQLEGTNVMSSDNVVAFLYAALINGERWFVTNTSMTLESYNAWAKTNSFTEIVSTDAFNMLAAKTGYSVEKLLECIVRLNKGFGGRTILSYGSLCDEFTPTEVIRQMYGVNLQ

Row | Compound | IC50 (FIPV M^pro [1]) | IC50 (SARS-CoV-2 M^pro) | also measured
1 | CC(C)C[C@H](NC(=O)O[C@@H](C)c1ccccc1)C(=O)N[C@H](C=O)C[C@@H]1CCNC1=O [1g] | 430 ± 90 nM | 270 ± 90 nM | –
2 | O=C(N[C@@H](CC1CC1)C(=O)N[C@@H](C[C@@H]1CCNC1=O)C(O)S(=O)(=O)O)OCc1cccc(F)c1 (some centres unmarked) [2c] | 30 ± 10 nM | 70 ± 10 nM | –
3 | CC(C)CC(NC(=O)OCc1ccccc1)C(=O)NC(C=O)CC1CCNC1=O (centres unmarked) [GC373] | – | – | Ki against SARS-CoV Mpro (in words) (SARS-CoV M^pro): nanomolar range
4 | COc1cccc2[nH]c(C(=O)N[C@@H](CC3CC3)C(=O)N[C@@H](C[C@@H]3CCNC3=O)C(O)S(=O)(=O)O)cc12 (some centres unmarked) [2e] | 60 ± 20 nM | – | –
5 | Feline infectious peritonitis virus main protease (FIPV M^pro, FIPV WSU-79/1146) (enzyme) | – | – | stoichiometry N [2]: 2
6 | O=C(N[C@@H](CC1CC1)C(=O)N[C@@H](C[C@@H]1CCNC1=O)C(O)S(=O)(=O)O)OCCc1cccc(Cl)c1 (some centres unmarked) [2d] | 50 ± 20 nM | – | –
7 | O=C[C@H](C[C@@H]1CCNC1=O)NC(=O)[C@H](CC1CC1)NC(=O)OCc1ccccc1 [1a] | 100 ± 70 nM | – | –
8 | CC(C)C[C@H](NC(=O)OCc1cccc(F)c1)C(=O)N[C@H](C=O)C[C@@H]1CCNC1=O [1d] | 70 ± 10 nM | 130 ± 40 nM | –
9 | CC(C)CC(NC(=O)OCc1ccccc1)C(=O)NC(CC1CCNC1=O)C(O)S(=O)(=O)O (centres unmarked) [GC376, reference compound] | – | – | Effect on progression of FIP in cats (FIP virus (FIPV)): successful in reversing the progression; IC50 (FIPV M^pro [1]; 100 nM FIPV Mpro, 40 µM FRET substrate, 37°C, mean ± SEM, n = 3, read-out: FIPV M^pro IC50): 130 ± 20 nM; Ki (FIPV M^pro [1]; read-out: Calculated Ki): 2.1 nM; IC50 against FIPV Mpro (in words) (FIPV M^pro [3]): sub-micromolar
10 | CC(C)C[C@H](NC(=O)OCCc1cccc(Cl)c1)C(=O)N[C@H](C=O)C[C@@H]1CCNC1=O [1e] | 130 ± 20 nM | 150 ± 50 nM | –
